≈ marks a conversion by molar mass, not a printed value. Marks after values point to notes of the source that are not given here.
How the values were obtained:
[1] = tested on: iNOS-mediated NO biosynthesis in 3T3-L1 adipocytes; test: LTI cytokine-stimulated NO biosynthesis in 3T3-L1 adipocytes; format: cell-based, murine; conditions: Mus musculus, value computed on the basis of TQ content, LPS/TNFα/IFγ stimulation 20 hours, (95% confidence interval), read-out: Median Inhibitory Concentration for iNOS-mediated NO biosynthesis, 3T3-L Adipocytes
Protocol: Cell culture and treatment-The murine fibroblast cell line 3T3-L1 was purchased from the American Type Culture Collection (Manassas, Va.) and sub-cultured according to instructions from the supplier. Prior to experiments, cells were cultured in DMEM containing 10% FBS-HI added 50 units penicillin/ml and 50 μg streptomycin/ml, and maintained in log phase prior to experimental setup. Cells were grown in a 5% CO2 humidified incubator at 37° C. Components of the pre-confluent medium included: (1) 10% FBS/DMEM (Fetal Bovine Serum/Dulbecco's Modified Eagle's Medium) containing 4.5 g glucose/L; (2) 50 U/ml penicillin; and (3) 50 μg/ml streptomycin. Growth medium was made by adding 50 ml of heat inactivated FBS and 5 ml of penicillin/streptomycin to 500 ml DMEM. This medium was stored at 4° C. Before use, the medium was warmed to 37° C. in a water bath. […] cells were seeded at an initial density of 6×10^4 cells/cm^2 in 24-well plates. […] Determination of nitrite in waters by microplate fluorescence spectroscopy and HPLC with fluorescence detection. […] After a reaction time of 30 minutes at ambient temperature, the fluorescence was read with 485 nm excitation filter and a 530 nm emission filter in a Packard Fluorocount spectrofluorometer (Model #BF10000, Meridan, Conn.). […] Quantitative analysis of dose-effect relationships: the combined effects of multiple drugs or enzyme inhibitors.

[2] = tested on: adiponectin secretion in 3T3-L1 adipocytes; test: Adiponectin secretion in t10-CLA-stimulated 3T3-L1 adipocytes; format: cell-based, murine
Protocol: Treatment—Test materials were added four hours prior to the addition of t10-CLA at a concentration of 50 μM. Following overnight incubation, the supernatant media were sampled for determination of IL-6 and adiponectin. Adiponectin assay—The adiponectin secreted into the medium was quantified using the Mouse Adiponectin Quantikine® Immunoassay kit with no modifications (R&D Systems, Minneapolis, Minn.). […] Statistical Calculations and Interpretation—Test materials and were assayed in duplicate, while solvent controls were replicated eight times. IL-6 and adiponectin secretion were represented relative to the IL-6 and adiponectin secretion of the t10-CLA only controls as the IL-6 and adiponectin index and differences among the means were analyzed by the student's t-test assuming a five percent probability of a type I error (Excel; Microsoft, Redmond, Wash.).

CC1=CC(=O)C(C(C)C)=CC1=O [Thymoquinone (Sigma), thymoquinone]
IC50 [1]: 1.9 µg/mL (≈ 11.6 µM) | effect on t10-CLA-stimulated decrease of adiponectin secretion ([2]; concentrations of Table 8): attenuated t10-CLA-stimulated decrease of adiponectin secretion | Adiponectin Index ([2]; relative to t10-CLA only control (100), 50 μM t10-CLA, overnight, each material at its tabulated concentration): 128*
